The NIST ThermoML archive (doi:10.1016/j.jct.2013.01.005)
Numbers after ± are expanded uncertainties.

Columns and labels:
[1] = 101.33 kPa, Liquid, Vibrating tube method
[2] = activity coefficient (dimensionless); of the first substance listed, at infinite dilution; xn = mol fraction of the nth substance listed; conditions: 101 kPa, Liquid, Chromatography, x1 = 0

| SMILES | activity coefficient ([2]; 308.15 K) | activity coefficient ([2]; 318.15 K) | activity coefficient ([2]; 328.15 K) | activity coefficient ([2]; 338.15 K) | activity coefficient ([2]; 348.15 K) | activity coefficient ([2]; 358.15 K) | further results |
| --- | --- | --- | --- | --- | --- | --- | --- |
| CCCCC[N+]1(C)CCCCC1.O=S(=O)([N-]S(=O)(=O)C(F)(F)F)C(F)(F)F |  |  |  |  |  |  | mass density ([1]; 293.15 K): 1354.47 ± 0.26 kg/m3; mass density ([1]; 298.15 K): 1350.13 ± 0.26 kg/m3; mass density ([1]; 303.15 K): 1345.85 ± 0.26 kg/m3; mass density ([1]; 308.15 K): 1341.7 ± 0.26 kg/m3; mass density ([1]; 313.15 K): 1337.54 ± 0.26 kg/m3; mass density ([1]; 318.15 K): 1333.36 ± 0.25 kg/m3; mass density ([1]; 323.15 K): 1329.2 ± 0.25 kg/m3; mass density ([1]; 328.15 K): 1325.05 ± 0.25 kg/m3; mass density ([1]; 333.15 K): 1320.89 ± 0.25 kg/m3; mass density ([1]; 338.15 K): 1316.75 ± 0.25 kg/m3; mass density ([1]; 343.15 K): 1312.6 ± 0.24 kg/m3; mass density ([1]; 348.15 K): 1308.46 ± 0.24 kg/m3; mass density ([1]; 353.15 K): 1304.36 ± 0.24 kg/m3; mass density ([1]; 358.15 K): 1300.26 ± 0.24 kg/m3 |
| C#CCCCC [1-hexyne] + CCCCC[N+]1(C)CCCCC1.O=S(=O)([N-]S(=O)(=O)C(F)(F)F)C(F)(F)F | 2.09 ± 0.14 | 2.12 ± 0.14 | 2.14 ± 0.15 | 2.18 ± 0.15 | 2.22 ± 0.15 | 2.25 ± 0.15 |  |
| C#CCCC [1-pentyne] + CCCCC[N+]1(C)CCCCC1.O=S(=O)([N-]S(=O)(=O)C(F)(F)F)C(F)(F)F | 1.54 ± 0.1 | 1.59 ± 0.11 | 1.62 ± 0.11 | 1.64 ± 0.11 | 1.69 ± 0.11 | 1.73 ± 0.12 |  |
| CC(C)CC(C)(C)C [2,2,4-trimethylpentane] + CCCCCC[N+]1(C)CCCCC1.O=S(=O)([N-]S(=O)(=O)C(F)(F)F)C(F)(F)F | 9.75 ± 0.67 | 9.59 ± 0.65 | 9.2 ± 0.63 | 8.95 ± 0.61 | 8.59 ± 0.59 | 8.43 ± 0.58 |  |
| Cc1ccc(C)cc1 [1,4-dimethylbenzene] + CCCCCC[N+]1(C)CCCCC1.O=S(=O)([N-]S(=O)(=O)C(F)(F)F)C(F)(F)F | 1.14 ± 0.07 | 1.17 ± 0.07 | 1.2 ± 0.08 | 1.24 ± 0.08 | 1.28 ± 0.08 | 1.3 ± 0.08 |  |
| C1CCCCCCC1 [cyclooctane] + CCCCC[N+]1(C)CCCCC1.O=S(=O)([N-]S(=O)(=O)C(F)(F)F)C(F)(F)F | 10.1 ± 0.7 | 9.58 ± 0.65 | 9.06 ± 0.62 | 8.6 ± 0.59 | 8.24 ± 0.56 | 7.8 ± 0.53 |  |
| C=CCCCCCCCC [1-decene] + CCCCCC[N+]1(C)CCCCC1.O=S(=O)([N-]S(=O)(=O)C(F)(F)F)C(F)(F)F | 12.3 ± 0.8 | 12.1 ± 0.8 | 12 ± 0.8 | 11.8 ± 0.8 | 11.7 ± 0.8 | 11.5 ± 0.8 |  |
| Cc1ccccc1C [1,2-dimethylbenzene] + CCCCC[N+]1(C)CCCCC1.O=S(=O)([N-]S(=O)(=O)C(F)(F)F)C(F)(F)F | 1.06 ± 0.07 | 1.14 ± 0.07 | 1.16 ± 0.07 | 1.19 ± 0.08 | 1.24 ± 0.08 | 1.27 ± 0.08 |  |
| C=CCCCCCC [oct-1-ene] + CCCCC[N+]1(C)CCCCC1.O=S(=O)([N-]S(=O)(=O)C(F)(F)F)C(F)(F)F | 9.9 ± 0.68 | 9.65 ± 0.66 | 9.28 ± 0.63 | 8.94 ± 0.61 | 8.77 ± 0.6 | 8.47 ± 0.58 |  |
| C1CCOC1 [tetrahydrofuran] + CCCCCC[N+]1(C)CCCCC1.O=S(=O)([N-]S(=O)(=O)C(F)(F)F)C(F)(F)F | 0.563 ± 0.04 | 0.579 ± 0.041 | 0.594 ± 0.042 | 0.612 ± 0.043 | 0.627 ± 0.043 | 0.635 ± 0.044 |  |
| C=CCCCCCC [oct-1-ene] + CCCCCC[N+]1(C)CCCCC1.O=S(=O)([N-]S(=O)(=O)C(F)(F)F)C(F)(F)F | 7.72 ± 0.53 | 7.6 ± 0.52 | 7.49 ± 0.51 | 7.37 ± 0.5 | 7.27 ± 0.5 | 7.2 ± 0.49 |  |
| COC(C)(C)C [2-methoxy-2-methylpropane] + CCCCC[N+]1(C)CCCCC1.O=S(=O)([N-]S(=O)(=O)C(F)(F)F)C(F)(F)F | 1.81 ± 0.12 | 1.85 ± 0.12 | 1.86 ± 0.13 | 1.89 ± 0.13 | 1.94 ± 0.13 | 1.98 ± 0.13 |  |
| C=CCCCCC [1-heptene] + CCCCC[N+]1(C)CCCCC1.O=S(=O)([N-]S(=O)(=O)C(F)(F)F)C(F)(F)F | 7.42 ± 0.51 | 7.12 ± 0.49 | 6.88 ± 0.47 | 6.67 ± 0.45 | 6.48 ± 0.44 | 6.31 ± 0.43 |  |
| CCCCCCCC [octane] + CCCCC[N+]1(C)CCCCC1.O=S(=O)([N-]S(=O)(=O)C(F)(F)F)C(F)(F)F | 18.2 ± 1.2 | 16.9 ± 1.2 | 15.9 ± 1.1 | 15.1 ± 1 | 14.4 ± 1 | 13.7 ± 0.9 |  |
| CC1CCCCC1 [methylcyclohexane] + CCCCCC[N+]1(C)CCCCC1.O=S(=O)([N-]S(=O)(=O)C(F)(F)F)C(F)(F)F | 6.24 ± 0.43 | 6.05 ± 0.41 | 5.83 ± 0.4 | 5.59 ± 0.38 | 5.4 ± 0.37 | 5.2 ± 0.35 |  |
| CCCOCCC [dipropyl ether] + CCCCCC[N+]1(C)CCCCC1.O=S(=O)([N-]S(=O)(=O)C(F)(F)F)C(F)(F)F | 3.5 ± 0.24 | 3.47 ± 0.24 | 3.44 ± 0.23 | 3.41 ± 0.23 | 3.38 ± 0.23 | 3.37 ± 0.23 |  |
| CCC(C)(C)OC [2-methoxy-2-methylbutane] + CCCCCC[N+]1(C)CCCCC1.O=S(=O)([N-]S(=O)(=O)C(F)(F)F)C(F)(F)F | 2.11 ± 0.14 | 2.14 ± 0.15 | 2.18 ± 0.15 | 2.2 ± 0.15 | 2.22 ± 0.15 | 2.25 ± 0.15 |  |
| C#CCCCC [1-hexyne] + CCCCCC[N+]1(C)CCCCC1.O=S(=O)([N-]S(=O)(=O)C(F)(F)F)C(F)(F)F | 1.85 ± 0.12 | 1.88 ± 0.13 | 1.92 ± 0.13 | 1.93 ± 0.13 | 1.96 ± 0.13 | 1.98 ± 0.13 |  |
| C1CCCC1 [cyclopentane] + CCCCCC[N+]1(C)CCCCC1.O=S(=O)([N-]S(=O)(=O)C(F)(F)F)C(F)(F)F | 3.72 ± 0.25 | 3.59 ± 0.24 | 3.43 ± 0.23 | 3.34 ± 0.23 | 3.24 ± 0.22 | 3.12 ± 0.21 |  |
